# US20250041306A1, “TARGETED PROTEASE DEGRADATION (TED) PLATFORM” (EUBULUS BIOTHERAPEUTICS INC., priority 2021, published 2025)
# Like-named read-outs stand apart in the source and are kept apart here.
# Key:
# Format in all cases: cell-based
# [1] = tested on: Human Small Cell Lung Cancer NCI-H82; experiment: Cell proliferation experiment (Alarm blue), H82; details: H82 cells, 72 h culture; for EC50: read-out: Anti cell proliferative activity EC50, H82
# Protocol: (§1) The cells were cultured in conventional ways, and the cells should be passed for at least 2 generations before plating. Cells at the logarithmic growth phase were collected, prepared into single cell suspensions and counted. The concentration of cells was adjusted to desired concentration, and cells were inoculated into a 96-well cell culture plate at 100 μl per well. 100 μL of complete medium of the test compound were added to each well, 2 replicate wells for each concentration were set up, and diluted with a 5-fold gradient, and continued to culture for 72 h. All cells were subjected to EC50 test for corresponding samples.
# (§2) The fluorescence intensity of each well was detected using the Alarm blue method, and IC50 was calculated.
# (§3) IC50 was calculated according to the following formula:
# (§4) [formula] • wherein Min, Max and Slope represent the minimum, maximum and slope respectively.
# [2] = tested on: human gastric carcinoma cells N87; experiment: Cell proliferation experiment (Alarm blue), N87; details: N87 cells, 72 h culture; for EC50: read-out: Anti cell proliferative activity EC50, N87
# Protocol: as §1, §2, §3, §4
# [3] = tested on: Human Colon Cancer cells Colo205; experiment: Cell proliferation experiment (Alarm blue), Colo205; details: Colo205 cells, 72 h culture; for EC50: read-out: Anti cell proliferative activity EC50, Colo205
# Protocol: as §1, §2, §3, §4
# [4] = tested on: Human Small Cell Lung Cancer H69; experiment: Cell proliferation experiment (Alarm blue), H69; details: H69 cells, 72 h culture; for EC50: read-out: Anti cell proliferative activity EC50, H69
# Protocol: as §1, §2, §3, §4
# Human Colon Cancer HT-29 = experiment: Cell proliferation experiment (Alarm blue), HT-29; details: HT-29 cells, 72 h culture; for EC50: read-out: Anti cell proliferative activity EC50, HT-29
# Protocol: as §1, §2, §3, §4
Structure (SMILES),EC50 [1] [nM],EC50 [2] [nM],EC50 [3] [nM],EC50 [4] [nM],EC50 (Human Colon Cancer HT-29) [nM],further results
CC(OC(=O)N(CCC#Cc1ccc2c(c1)CN(C1CCC(=O)NC1=O)C2=O)C1CCC(NC(=O)N2CCN(c3ccc(Nc4ncc(Cl)c(Nc5ccccc5C(N)=O)n4)cc3)CC2)CC1)C(C)SSC[C@H](NC(=O)CCOCCOCCOCCOCCOCCOCCOCCOCCNC(=O)CC[C@H](NC(=O)c1ccc(NCc2cnc3nc(N)[nH]c(=O)c3n2)cc1)C(=O)O)C(=O)N[C@H](Cc1ccccc1)C(=O)N[C@H]1CSSC[C@@H](C(=O)N[C@H](CO)[C@@H](C)O)NC(=O)[C@H]([C@@H](C)O)NC(=O)[C@H](CCCCN)CC(=O)[C@@H](Cc2c[nH]c3ccccc23)NC(=O)[C@H](Cc2ccccc2)NC1=O (stereo partly drawn) [UB-181280],647,> 1000,1.9,> 1000,> 1000,
NC(=O)c1ccccc1Nc1nc(Nc2ccc(N3CCN(C(=O)NC4CCN(CCNCCC#Cc5ccc6c(c5)CN(C5CCC(=O)NC5=O)C6=O)CC4)CC3)cc2)ncc1Cl (stereo not drawn) [UB-181274],,,,,,"EC50 ([1]; Homo sapiens, NCI-H82, 72 h): 27.7 nM; EC50 ([2]; Homo sapiens, 72 h): 18.2 nM; EC50 ([3]; Homo sapiens, COLO 205, 72 h): 49.4 nM; EC50 ([4]; Homo sapiens, NCI-H69): > 1000 nM; EC50 (Human Colon Cancer HT-29; Homo sapiens): 522 nM"
C[C@H](NC(=O)CCCCCN1C(=O)CC(SC[C@H](N)C(=O)N[C@@H](Cc2ccccc2)C(=O)N[C@H]2CSSC[C@@H](C(=O)N[C@H](CO)[C@@H](C)O)NC(=O)[C@H]([C@@H](C)O)NC(=O)[C@H](CCCCN)NC(=O)[C@@H](Cc3c[nH]c4ccccc34)NC(=O)[C@H](Cc3ccccc3)NC2=O)C1=O)C(=O)N[C@@H](C)C(=O)N[C@@H](CC(N)=O)C(=O)Nc1ccc(COC(=O)N(CCC#Cc2ccc3c(c2)CN(C2CCC(=O)NC2=O)C3=O)C2CCC(NC(=O)N3CCN(c4ccc(Nc5ncc(Cl)c(Nc6ccccc6C(N)=O)n5)cc4)CC3)CC2)cc1 (stereo partly drawn) [UB-181285],125,50,62.1,> 1000,528,
CC(C)c1cc(-c2nnc(O)n2-c2ccc3c(ccn3CCC3CCN(C(=O)NCCOCCOCCOCCOCCOCCOCCOCCOCCC(=O)N[C@@H](CSC4CC(=O)N(CCCCCC(=O)N[C@@H](C)C(=O)N[C@@H](C)C(=O)N[C@@H](CC(N)=O)C(=O)Nc5ccc(COC(=O)N(CCC#Cc6ccc7c(c6)CN(C6CCC(=O)NC6=O)C7=O)C6CCC(NC(=O)N7CCN(c8ccc(Nc9ncc(Cl)c(Nc%10ncc(Cl)c(Nc%11ccccc%11C(N)=O)n%10)n9)cc8)CC7)CC6)cc5)C4=O)C(=O)N[C@H](Cc4ccccc4)C(=O)N[C@H]4CSSC[C@@H](C(=O)N[C@H](CO)[C@@H](C)O)NC(=O)[C@H]([C@@H](C)O)NC(=O)[C@H](CCCCN)NC(=O)[C@@H](Cc5c[nH]c6ccccc56)NC(=O)[C@H](Cc5ccccc5)NC4=O)CC3)c2)c(O)cc1O (stereo partly drawn) [UB-181289],410,698,621,> 1000,> 1000,
CC(C)c1cc(-c2nnc(O)n2-c2ccc3c(ccn3CCC3CCN(C(=O)CCSC4CC(=O)N(CCCCCC(=O)N[C@@H](C)C(=O)N[C@@H](C)C(=O)N[C@@H](CC(N)=O)C(=O)Nc5ccc(COC(=O)N(CCC#Cc6ccc7c(c6)CN(C6CCC(=O)NC6=O)C7=O)C6CCC(NC(=O)N7CCN(c8ccc(Nc9ncc(Cl)c(Nc%10ccccc%10C(N)=O)n9)cc8)CC7)CC6)cc5)C4=O)CC3)c2)c(O)cc1O.O=CO (stereo partly drawn) [UB-181290],,,,,,"Anti cell proliferative activity EC50, H82 [1]: insoluble; Anti cell proliferative activity EC50, N87 [2]: insoluble; Anti cell proliferative activity EC50, Colo205 [3]: insoluble; Anti cell proliferative activity EC50, H69 [4]: insoluble; Anti cell proliferative activity EC50, HT-29 (Human Colon Cancer HT-29): insoluble"
N=C(N)NCCC[C@H](NC(=O)[C@H](CC(=O)O)NC(=O)CC[C@H](NC(=O)c1ccc(NCc2cnc3nc(N)[nH]c(=O)c3n2)cc1)C(=O)O)C(=O)N[C@@H](CC(=O)O)C(=O)N[C@@H](CC(=O)O)C(=O)N[C@@H](CSSCCOC(=O)N(CCC#Cc1ccc2c(c1)CN(C1CCC(=O)NC1=O)C2=O)C1CCC(NC(=O)N2CCN(c3ccc(Nc4ncc(Cl)c(Nc5ccccc5C(N)=O)n4)cc3)CC2)CC1)C(=O)O (stereo partly drawn) [UB-181327],283,> 1000,243,> 1000,855,
